Measurements as given in PubChem BioAssay AID1259411 (Chemical Carcinogenesis Research Information System (CCRIS), 2018).
Calls of active or inactive are those of the source. The rule behind the calls is not given here.

System: rodent carcinogenicity bioassays, tumor incidence
Test: CCRIS carcinogenicity studies
Conditions: Dose: 0
Outline: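 NCI-built, expert-reviewed records of carcinogenicity and related test outcomes (mutagenicity, tumor promotion/inhibition) compiled from published and report sources, historical span 1985-2011, not updated.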

Compound: C[C@@H]1Cc2c(Cl)cc(C(=O)NC(Cc3ccccc3)C(=O)O)c(O)c2C(=O)O1 (stereo partly specified)
- carcinogen call (Species: MOUSE, Strain/Sex: ALBINO/MALE,FEMALE, Route: GAVAGE, 0.25 ML OF 50 PPM SOLUTION 2/WK FOR 20 WK (STUDY DURATION: 20 WK), Tumor Site: Type of Lesion: KIDNEY: CARCINOMA): active; positive
- carcinogen call (Species: MOUSE, Strain/Sex: CD-1/FEMALE, Route: ORAL, 0.031, 0.125, 0.5% IN DIET FOR 78 WK (STUDY DURATION: 78 WK), 0.031, 0.125, 0.5% IN DIET FOR 78 WK (STUDY DURATION: 78 WK)): inactive; negative
- carcinogen call (Species: MOUSE, Strain/Sex: CD-1/MALE, Route: ORAL, 0.031, 0.125, 0.5% IN DIET FOR 78 WK (STUDY DURATION: 78 WK), 0.031, 0.125, 0.5% IN DIET FOR 78 WK (STUDY DURATION: 78 WK)): inactive; negative
- carcinogen call (Species: MOUSE, Strain/Sex: DDD/MALE, Route: ORAL, 25 PPM IN DIET FOR 70 WK (STUDY DURATION: 70 WK), Tumor Site: Type of Lesion: KIDNEY: RENAL CELL TUMOR, LIVER: HEPATOMA): active; positive
- carcinogen call (Species: MOUSE, Strain/Sex: DDY/MALE, Route: ORAL, 7.05, 17.24, 26.27, 33.16, 35.86, 42.67 MG/MOUSE (TOTAL DOSE) ADMINISTERED AT A DOSE OF 50 PPM IN DIET FOR 0, 5, 10,, 7.05, 17.24, 26.27, 33.16, 35.86, 42.67 MG/MOUSE (TOTAL DOSE) ADMINISTERED AT A DOSE OF 50 PPM IN DIET FOR 0, 5, 10,, Tumor Site: Type of Lesion: LIVER: HEPATOMA, KIDNEY: RENAL CELL TUMOR): active; positive
- carcinogen call (Species: MOUSE, Strain/Sex: SWISS/MALE,FEMALE, Route: GAVAGE, 0.25 ML OF A 50 PPM SOLUTION 2/WK FOR 20 WK (STUDY DURATION: 20 WK), Tumor Site: Type of Lesion: KIDNEY: CARCINOMA): active; positive
- carcinogen call (Species: RAT, Strain/Sex: DA/FEMALE, Route: GAVAGE, 0.4 MG/KG BW IN SODIUM BICARBONATE 3/WK FOR DURATION OF STUDY (STUDY DURATION: LIFESPAN)): inactive; negative
- carcinogen call (Species: RAT, Strain/Sex: DA/MALE, Route: GAVAGE, 0.4 MG/KG BW IN SODIUM BICARBONATE 3/WK FOR DURATION OF STUDY (STUDY DURATION: LIFESPAN), Tumor Site: Type of Lesion: KIDNEY: ADENOCARCINOMA, ADENOMA): active; positive
- carcinogen call (Species: RAT, Strain/Sex: F344/FEMALE, Route: GAVAGE, 21, 70, 210 UG/KG IN CORN OIL 5 D/WK FOR 103 WK (STUDY DURATION: 105 WK), 21, 70, 210 UG/KG IN CORN OIL 5 D/WK FOR 103 WK (STUDY DURATION: 105 WK), Tumor Site: Type of Lesion: KIDNEY TUBULE: ADENOMA, CARCINOMA, MAMMARY GLAND: FIBROADENOMA, ADENOMA OR FIBROADENOMA OR ADENOCARCINOMA): active; positive
- carcinogen call (Species: RAT, Strain/Sex: F344/MALE, Route: GAVAGE, 21, 70, 210 UG/KG IN CORN OIL 5 D/WK FOR 103 WK (STUDY DURATION: 106 WK), 21, 70, 210 UG/KG IN CORN OIL 5 D/WK FOR 103 WK (STUDY DURATION: 106 WK), Tumor Site: Type of Lesion: KIDNEY TUBULE: ADENOMA, CARCINOMA): active; positive
- carcinogen call (Species: RAT, Strain/Sex: LEWIS/FEMALE, Route: GAVAGE, 0.4 MG/KG BW IN SODIUM BICARBONATE 3/WK FOR DURATION OF STUDY (STUDY DURATION: LIFESPAN), Tumor Site: Type of Lesion: KIDNEY: ADENOCARCINOMA): active; positive
- carcinogen call (Species: RAT, Strain/Sex: LEWIS/MALE, Route: GAVAGE, 0.4 MG/KG BW IN SODIUM BICARBONATE 3/WK FOR DURATION OF STUDY (STUDY DURATION: LIFESPAN), Tumor Site: Type of Lesion: KIDNEY: ADENOCARCINOMA): active; positive

Compound: O=C(CO)CO
- carcinogen call (Species: MOUSE, Strain/Sex: SWISS/FEMALE, Route: DERMAL, 5, 40% AQUEOUS SOLUTION APPLIED 1/WK FOR 80 WK (STUDY DURATION: 80 WK), 5, 40% AQUEOUS SOLUTION APPLIED 1/WK FOR 80 WK (STUDY DURATION: 80 WK)): inactive; negative
- carcinogen call (Species: MOUSE, Strain/Sex: SWISS/MALE, Route: DERMAL, 5%, 40% AQUEOUS SOLUTION APPLIED 1/WK FOR 80 WK (STUDY DURATION: 80 WK), 5%, 40% AQUEOUS SOLUTION APPLIED 1/WK FOR 80 WK (STUDY DURATION: 80 WK)): inactive; negative

Compound: COc1ccccc1O
- carcinogen call (Species: RAT, Strain/Sex: SPRAGUE-DAWLEY/FEMALE, Route: GAVAGE, 20, 50, 200 MG/KG/D IN 0.5% CARBOXYMETHYLCELLULOSE SUSPENSION FOR 103 WK (STUDY DURATION: 103 WK), 20, 50, 200 MG/KG/D IN 0.5% CARBOXYMETHYLCELLULOSE SUSPENSION FOR 103 WK (STUDY DURATION: 103 WK)): inactive; negative
- carcinogen call (Species: RAT, Strain/Sex: SPRAGUE-DAWLEY/MALE, Route: GAVAGE, 20, 50, 200 MG/KG/D IN 0.5% CARBOXYMETHYLCELLULOSE SUSPENSION FOR 103 WK (STUDY DURATION: 103 WK), 20, 50, 200 MG/KG/D IN 0.5% CARBOXYMETHYLCELLULOSE SUSPENSION FOR 103 WK (STUDY DURATION: 103 WK)): inactive; negative
